Source: paper PMC12906330 (SLAS discovery : advancing life sciences R & D, 2025)

What was measured:
Type in all cases: biochemical
[1] = biological target: T1, FlgE (flagellar hook protein) (Treponema denticola, UniProt Q9RQB6); assay: ELISA of Lal crosslinking between purified FlgE subunits, dose-response
T1 sequence (Q9RQB6 11-454): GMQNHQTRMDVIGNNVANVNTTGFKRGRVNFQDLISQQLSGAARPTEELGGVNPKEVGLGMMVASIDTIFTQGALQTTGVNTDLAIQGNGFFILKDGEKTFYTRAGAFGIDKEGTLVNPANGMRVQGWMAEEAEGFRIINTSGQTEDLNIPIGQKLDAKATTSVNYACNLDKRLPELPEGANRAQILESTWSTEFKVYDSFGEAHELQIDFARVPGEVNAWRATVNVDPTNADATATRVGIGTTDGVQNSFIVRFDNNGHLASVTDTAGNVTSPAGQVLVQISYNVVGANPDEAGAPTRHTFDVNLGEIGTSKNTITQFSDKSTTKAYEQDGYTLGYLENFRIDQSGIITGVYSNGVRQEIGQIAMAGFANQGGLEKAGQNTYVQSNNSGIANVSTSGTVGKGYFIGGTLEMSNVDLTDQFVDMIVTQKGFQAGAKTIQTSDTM

[2] = biological target: T1, FlgE (flagellar hook protein); assay: ELISA of Lal crosslinking between purified FlgE subunits
[3] = biological target: T1, FlgE (flagellar hook protein); assay: ELISA of Lal crosslinking between purified FlgE subunits, dose-response; remark: listed apart in the source

Compound `Oc1c(Cl)cc(Cl)c(Cl)c1Cc1c(O)c(Cl)cc(Cl)c1Cl` [hexachlorophene] has an IC50 [1] of 47.7 µM.
`C=CCc1ccc(O)c(-c2ccc(O)c(CC=C)c2)c1` [honokiol] showed an IC50 [2] of 118 µM.
`COc1cc(C(=O)NS(=O)(=O)c2ccccc2C)ccc1Cc1cn(C)c2ccc(NC(=O)OC3CCCC3)cc12` [zafirlukast] showed an IC50 [3] of 92 µM.
